The results in this text go back to patent publication US9975857B2, “Inhibition of bacterial biofilms with imidazole-phenyl derivatives” (North Carolina State University, priority 2008, dated 2018).

This experiment concerns A. baumannii. Put plainly: Biofilm inhibition assay (crystal violet, 96-well PVC plate). In kind it is cell-based. The settings on record: Acinetobacter baumannii, LB medium, 37° C., 24 hours, crystal violet OD540; for IC50: read-out: ACTIVITY against A. baumannii: IC50 (biofilm inhibition). On the procedure: Biofilm inhibition assays were performed by taking an overnight culture of bacterial strain and subculturing it at an OD600 of 0.10 into LB medium. The compound being tested was then added at a predetermined concentration and then aliquoted (100 μL) into the wells of a 96-well PVC microtiter plate (Wells not used for samples were filled with 100 μL of de-ionized water). Plates were then wrapped in GLAD Press n' Seal® and incubated under stationary conditions at 37° C. After 24 hours, the media was discarded from the wells and the plates were washed thoroughly with tap water. Plates were then stained with 100 μL of 0.1% solution of crystal violet (CV) and then incubated at an ambient temperature for 30 minutes. Sample plates were then washed with tap water again, and the remaining stain was solubilized with 200 μL of 95% ethanol. Biofilm inhibition was quantitated by measuring the OD540 for each well by transferring 125 μL of the solubilized CV stain into a polystyrene microtiter dish for analysis.

By IC50 is commonly meant the midpoint of a concentration-inhibition curve. Consider `Nc1ncc(-c2ccc(C#Cc3cc(F)cc(F)c3)cc2)[nH]1`, for which the 50% inhibitory concentration (IC50) is less than 50 µM.
The same measure, in the same setting: to `Nc1ncc(-c2ccc(C#Cc3ccccc3)cc2)[nH]1` belongs 6.54 µM; to `COc1ccc(C#Cc2ccccc2-c2cnc(N)[nH]2)c(C)c1`, 40 to 50 µM; to `Nc1ncc(-c2ccccc2C#Cc2cccc(Cl)c2)[nH]1`, less than 50 µM.
For `Nc1ncc(-c2ccccc2C#Cc2ccccc2)[nH]1`, the IC50 lay within 50 to 75 µM.
As usually defined, the inhibition is the share of the control response that was lost under treatment. On to `COc1ccccc1C#Cc1cccc(-c2cnc(N)[nH]2)c1`, for which, for the setting “at 100 μM, read-out: ACTIVITY against A. baumannii: % inhibition (biofilm inhibition)”, the inhibition at 100 µM was 34%.
